#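 Grown in 96-well plates, cells were treated for 48 hours with each compound at five concentrations. Insufficient inhibition: endpoint recorded as highest concentration tested. TGI marks complete inhibition of growth.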
# Legend:
# Assay in all cases: DTP human tumour cell line panel, 48 h
# A549 NSCLC = tested on: A549 NSCLC
# EKVX NSCLC = tested on: EKVX NSCLC
# HS 578T breast = tested on: HS 578T breast
# NCI-H23 lung = tested on: NCI-H23 lung
# NCI-H522 lung = tested on: NCI-H522 lung
# SF-268 CNS = tested on: SF-268 CNS
# SW-620 colon = tested on: SW-620 colon
# T-47D breast = tested on: T-47D breast
# TK-10 renal = tested on: TK-10 renal
# UO-31 renal = tested on: UO-31 renal
Structure (SMILES),TGI (A549 NSCLC) [µM],TGI (EKVX NSCLC) [µM],TGI (HS 578T breast) [µM],TGI (NCI-H23 lung) [µM],TGI (NCI-H522 lung) [µM],TGI (SF-268 CNS) [µM],TGI (SW-620 colon) [µM],TGI (T-47D breast) [µM],TGI (TK-10 renal) [µM],TGI (UO-31 renal) [µM]
COc1ccc(C2C(=O)c3c(OC)cc(OC)cc3OC2c2cccnc2)cc1 (centres undefined),> 100,> 100,> 100,> 100,> 100,> 100,> 100,> 100,> 100,> 100
CC(C)=CC[C@]12CCN(C)[C@H]1N(S(=O)(=O)c1ccccc1)c1ccccc12,> 100,> 63.9,> 90,> 100,41.8,> 100,> 100,> 76,> 100,> 100
COC(=O)c1cc(OC)c(OC)c(OC)c1-c1cc2c(cc1C=O)OCO2,> 10,> 10,> 10,> 10,> 10,> 10,> 10,> 10,> 10,> 10
O=C1CSC(c2cccc(Cl)c2)N1c1ccc(-c2ccc(-n3c(-c4ccccc4)nc4ccccc4c3=O)cc2)cc1 (centres undefined),> 100,> 100,> 100,> 100,> 100,> 100,> 100,97.9,> 100,84.1
C(=Nc1ccc(-c2nc3ccccc3s2)cc1)c1ccc[nH]1,> 100,45.4,53.4,37,28,52.5,53.8,47.3,64.2,53.5
Cc1cc(S(=O)(=O)Nc2n[nH]c(N)n2)c(Cl)cc1Cl,> 10,> 10,> 10,> 10,> 10,> 10,> 10,> 10,> 10,
Cc1c2c(n(CC(c3ccccc3)c3ccccc3)c1C)NN=C(C#N)S2(=O)=O,> 100,> 100,> 100,> 100,> 100,> 100,> 100,> 100,> 100,> 100
CCC(C)C1=C(O)[N+]2([O-])Oc3ccc(-c4c(O)c(O)c(-c5ccc(OC(C)=O)cc5)c(OC(C)=O)c4OC(C)=O)cc3OC2(C(C)CC)C(=O)N1O (centres undefined),> 50,> 50,> 50,> 50,> 50,> 50,> 50,> 50,> 50,> 50
COC1(CC[C@@H](C)COC2OC(CO)C(O)C(O)C2O)O[C@H]2C[C@H]3[C@@H]4CC=C5C[C@@H](OC6OC(CO)C(O)C(OC7OC(CO)C(O)C(O)C7O)C6OC6OC(C)C(O)C(O)C6O)CC[C@]5(C)[C@H]4CC[C@]3(C)[C@H]2[C@@H]1C (some centres undefined),9.36,35.3,22.2,28.2,15.3,26.4,6.51,25.9,43.8,9.53
O=c1[nH]c(NCc2ccc(Cl)cc2)nc2nc[nH]c12,> 100,> 100,> 100,> 100,> 100,> 100,> 100,> 100,> 100,> 100
N/C1=C/C(=O)NC(=O)c2c(c3ccccc3oc2=O)C1,> 100,> 100,> 100,> 100,> 100,> 100,> 100,> 100,> 100,> 100
CC(Oc1ccccc1)C(=O)NNC(=O)OC(C)(C)C (centres undefined),> 100,> 100,> 100,> 100,> 100,> 100,> 100,> 100,> 100,> 100
O=C1C(c2c(O)[nH]c3ccc(Br)cc23)=Nc2ccc(Br)cc21,> 100,> 100,> 100,88,> 100,> 100,> 100,> 100,> 100,> 100
C/C(=N\O)c1cccc[n+]1Cc1ccccc1,> 100,> 100,> 100,> 100,> 100,> 100,> 100,> 100,> 100,> 100
C/C(=C/CC[C@]1(CO)CC[C@]2(C)[C@H](CC[C@@H]3[C@@]4(C)CC[C@H](OC5OC(CO)C(O)C(O)C5OC5OC(CO)C(O)C(O)C5O)C(C)(C)[C@@H]4CC[C@]32C)[C@H]1O)CO (some centres undefined),> 100,> 100,> 100,> 100,> 100,> 100,> 100,> 100,> 100,> 100
C[C@@H]1CC(=O)C[C@@H]2CC[C@H]3[C@@H]4CC[C@H](OC(=O)c5cccc6cc7ccccc7nc56)[C@H]4CC[C@@H]3[C@H]21,83.2,34.7,> 100,30.4,20.1,20.9,44.2,37.5,65.9,31
O=C1CSC(c2ccc(Cl)cc2Cl)N1c1ccc(Oc2ccc(Cl)cc2)c(Cl)c1 (centres undefined),> 100,74,41.9,69.6,31.5,51.1,> 100,90.1,> 100,32.6
CC1=CP(=O)(c2c(C(C)C)cc(C(C)C)cc2C(C)C)CCC1Cl (centres undefined),32.7,32.6,> 100,39.4,33.6,35.4,69.9,31.9,30.7,29.2
COc1ccc(NCC(=O)Nn2c(-c3ccccc3)nc3ccccc3c2=O)cc1,> 100,> 100,> 100,> 100,> 10,> 100,82.9,> 100,> 100,> 100
OC1COC2CC(Nc3ccccn3)OC12 (centres undefined),> 100,> 100,> 100,> 100,> 100,> 100,> 100,> 100,> 100,> 100
